Test results as given in patent US6436945B2, “Substituted O6-benzyl-8-aza-guanines” (The United States of America as represented by the of …, priority 1994, dated 2002).
Where a chain is given by its changes, count along the chain named.

What was measured:
mutant alkyltransferase = test: Inactivation of mutant (resistant) alkyltransferase, overall statements; type: biochemical, human; details: intracellular concentration, extrapolated from Table 6
[1] = test system: DU-145 prostate cancer cells; test: Killing of DU-145 prostate cancer cells by BCNU combined with AGT inactivators (colony formation)
Method: (§1) Cells were treated for 2 h with AGT inactivator prior to exposure to BCNU.

[2] = biological target: T1, alkyltransferase P138A/P140A (Homo sapiens, UniProt P16455, P138A/P140A); test: Inhibition of mutant alkyltransferase proteins, P138A/P140A; type: biochemical
T1 construct: made in house
T1 sequence (P16455 1-207 P138A/P140A): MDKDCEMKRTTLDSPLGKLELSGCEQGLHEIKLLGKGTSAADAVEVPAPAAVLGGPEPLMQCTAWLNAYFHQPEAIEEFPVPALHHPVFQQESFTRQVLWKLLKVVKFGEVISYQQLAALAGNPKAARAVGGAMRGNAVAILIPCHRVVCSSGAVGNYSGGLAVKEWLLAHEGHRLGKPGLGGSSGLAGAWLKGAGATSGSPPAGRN

alkyltransferase G156A = biological target: T2, alkyltransferase G156A (Homo sapiens, UniProt P16455, G156A); test: Inhibition of mutant alkyltransferase proteins, G156A; type: biochemical
T2 construct: made in house
T2 sequence (P16455 1-207 G156A): T1 sequence (P16455 1-207 P138A/P140A) with A138P, A140P, G156A

HT-29 colon cancer cells = test: Killing of HT-29 colon cancer cells by BCNU combined with AGT inactivators (colony formation); details: for Colony Formation per 1000 cells: HT-29
Method: as §1

[3] = biological target: T3, O^6-alkylguanine-DNA alkyltransferase (AGT) (Homo sapiens, UniProt P16455); parameters: endogenous in cells; host or cells: HT29 human colon tumor cells; details: text b35, comparison value of Table 1; cited from earlier work
T3 sequence (P16455 1-207): T1 sequence (P16455 1-207 P138A/P140A) with A138P, A140P

[4] = test system: MCF-71 breast cancer cells; test: Killing of MCF-71 breast cancer cells by BCNU combined with AGT inactivators (colony formation)
Method: as §1

alkyltransferase P140A = biological target: T4, alkyltransferase P140A (Homo sapiens, UniProt P16455, P140A); test: Inhibition of mutant alkyltransferase proteins, P140A; type: biochemical
T4 construct: made in house
T4 sequence (P16455 1-207 P140A): T1 sequence (P16455 1-207 P138A/P140A) with A138P

Control alkyltransferase = biological target: T5, Control alkyltransferase (Homo sapiens, UniProt P16455); test: Inhibition of alkyltransferase proteins, control protein; type: biochemical; details: concentration to inactivate 50% of the activity in 30 minutes, read-out: ED50 value
T5 sequence (P16455 1-207): T1 sequence (P16455 1-207 P138A/P140A) with A138P, A140P

[5] = biological target: T3, O^6-alkylguanine-DNA alkyltransferase (AGT); test: AGT inactivation in HT29 cell-free extract
Method: (§2) The data represent the dose of compound required to produce 50% inactivation in cell-free extracts upon incubation for 30 min or in cells upon incubation for 4 hr.

[6] = biological target: T3, O^6-alkylguanine-DNA alkyltransferase (AGT); test: AGT inactivation in intact HT29 cells
Method: as §2

Nc1nc(OCc2ccccc2)c2nc[nH]c2n1 [O^6-benzylguanine, reference compound]
concentration needed to be effective at inactivating resistant alkyltransferase (mutant alkyltransferase): greater than 200 μM | Colony Formation per 1000 cells ([1]; inactivator 1 μM, BCNU 40 μM): 299 ± 18 per 1000 cells | Colony Formation per 1000 cells ([1]; inactivator 10 μM, BCNU 40 μM): 28 ± 5 per 1000 cells | Colony Formation per 1000 cells ([1]; inactivator 10 μM, BCNU none): 462 ± 68 per 1000 cells | increase in resistance to inactivation ([2]; P138A/P140A versus control protein): 88 fold | increase in resistance to inactivation (alkyltransferase G156A; G156A versus control protein): 240 fold | Colony Formation per 1000 cells (HT-29 colon cancer cells; inactivator 1 μM, BCNU 40 μM): 277 ± 25 per 1000 cells | Colony Formation per 1000 cells (HT-29 colon cancer cells; inactivator 10 μM, BCNU 40 μM): 13 ± 6 per 1000 cells | Colony Formation per 1000 cells (HT-29 colon cancer cells; inactivator 10 μM, BCNU none): 431 ± 33 per 1000 cells | Colony Formation per 1000 cells (HT-29 colon cancer cells; inactivator […], BCNU 40 μM): 38 ± 15 per 1000 cells | ED50 value for inactivation of AGT in HT29 cell extracts [3]: 200000 nM | Colony Formation per 1000 cells ([4]; inactivator 10 μM, BCNU 40 μM): 4 ± 2 per 1000 cells | Colony Formation per 1000 cells ([4]; inactivator 10 μM, BCNU none): 455 ± 63 per 1000 cells | Colony Formation per 1000 cells ([4]; inactivator […], BCNU 40 μM): 12 ± 6 per 1000 cells | increase in resistance to inactivation (alkyltransferase P140A; P140A versus control protein): 20 fold

Nc1nc(N)c(N=O)c(OCc2ccccc2)n1 [Compound 3d, 2,4-diamino-6-benzyloxy-5-nitrosopyrimidine]
concentration needed to be effective at inactivating resistant alkyltransferase (mutant alkyltransferase): greater than 5 μM | EC50 (Control alkyltransferase): 50 nM | Colony Formation per 1000 cells ([1]; inactivator 1 μM, BCNU 40 μM): 25 ± 4 per 1000 cells | EC50 ([2]; P138A/P140A, concentration to inactivate 50% of the activity in 30 minutes, read-out: ED50 value): 300 nM | EC50 (alkyltransferase G156A; G156A, concentration to inactivate 50% of the activity in 30 minutes, read-out: ED50 value): 1000 nM | EC50 [5]: 60 nM | AGT inactivating activity in HT29 cell-free extracts, in words ([5]; comparison): the most active AGT inactivators tested to date | enhancement of BCNU cytotoxicity, in words (HT-29 colon cancer cells; BCNU 40 μM, statement covers HT29, DU-145 and MCF-71 cells (Tables 3-5)): similarly effective at a 4-fold lower dose | Colony Formation per 1000 cells (HT-29 colon cancer cells; inactivator 1 μM, BCNU 40 μM): 19 ± 4 per 1000 cells | Colony Formation per 1000 cells (HT-29 colon cancer cells; inactivator […], BCNU 40 μM): <1 per 1000 cells | EC50 [6]: 20 nM | Colony Formation per 1000 cells ([4]; inactivator […], BCNU 40 μM): 2 ± 1 per 1000 cells | EC50 (alkyltransferase P140A; P140A, concentration to inactivate 50% of the activity in 30 minutes, read-out: ED50 value): 100 nM
